According to patent US6465494B1, “Methods for treatment of cystic fibrosis” (Cell Pathways, Inc., priority 2001, dated 2002):
Counter-ions that a name gives are not always drawn. Like-named read-outs stand apart in the source and are kept apart here.

Experiments:
[1] = test system: PDE4; assay: PDE inhibition, similar protocols: PDE4; assay type: biochemical
[2] = target: T1, PDE5 (Homo sapiens, UniProt O76074); assay: cGMP PDE inhibition, 3H-cGMP hydrolysis: PDE5; assay type: biochemical; design: partially purified cGMP-specific PDE isolated from HT-29 cells; endogenous in cells; host or cells: HT-29
Description: (Thompson, W. J., Teraski, W. L., Epstein, P. M., Strada, S. J., Advances in Cyclic Nucleotide Research, 10:69-92, 1979, which is incorporated herein by reference). […] The mixture is incubated at 30° C. for 10 minutes with isolated PDE2 and/or PDE5. Reactions are terminated, for example, by boiling the reaction mixture for 75 seconds. After cooling on ice, 100 μl of 0.5 mg/mL snake venom (O. Hannah venom available from Sigma) is added and incubated for 10 minutes at 30° C. This reaction is then terminated by the addition of an alcohol, e.g. 1 mL of 100% methanol. Assay samples are applied to 1 mL Dowex 1-X8 column; and washed with 1 mL of 100% methanol. The amount of radioactivity in the breakthrough and the wash from the column is combined and measured with a scintillation counter. The degree of phosphodiesterase inhibition is determined by calculating the amount of radioactivity in drug-treated reactions and comparing against a control sample (a reaction mixture lacking the tested compound but with drug solvent).
Compounds of this invention are also PDE2 and PDE5 inhibitors as taught in part U.S. patent application Ser. No. 09/046,739 filed Mar. 24, 1998. […] The amount of radioactivity in the breakthrough and the wash from the columns in then measured with a scintillation counter. […]

[3] = 91-day oral study in dogs; assay type: in vivo
[4] = acute toxicity study in rats; conditions: rat, in vivo; for LD50: rats
[5] = target: T1, PDE5; assay: competitive (with cGMP) binding to PDE5
[6] = single, escalating dose human clinical safety study; assay type: in vivo; conditions: oral, 50 mg BID, 100 mg BID, 200 mg BID and 400 mg BID
[7] = seven-day dose-range finding study in rats; assay type: in vivo; conditions: 7 days

Which IC50 [1] does the source give for `CC1=C(CC(=O)NCc2ccccc2)c2cc(F)ccc2/C1=C\c1ccncc1` [Example 38, (Z)-5-fluoro-2-methyl-(4-pyridylidene)-3-(N-benzyl)indenylacetamide hydrochloride] here?
Its IC50 is 6 µM.

What about the IC50 [2] of the same compound?
The IC50 was 4 µM.

What about the tolerability ([3]; 91 days) of the same compound?
Its tolerability is “well tolerated”.

And the feces observation ([3]; 91 days, 150 and 300 mg/kg/day)?
The feces observation was “Orange discoloration of the feces”.

What about the body weights ([3]; 91 days, highest dose group) of the same compound?
The body weights was “Slightly lowered body weights”.

And the liver weights ([3]; 91 days, highest dose group)?
Its liver weights is “increased liver weights”.

What about the “microscopic alterations of liver” value ([3]; 91 days, highest dose group) of the same compound?
The value was “no microscopic alterations”.

What about the toxicological effects overall ([3]; oral, 91 consecutive days, 50, 150 and 300 mg/kg/day) of the same compound?
Its toxicological effects overall is “no toxicological effects”.

What about the “acute toxicity on a single-dose basis” value [4] of the same compound?
Its value is “not acutely toxic”.

And the body weight gain ([4]; ip, 1000 mg/kg)?
The body weight gain was “reduced body weight gain”.

And the necropsy finding ([4]; ip, 1000 mg/kg)?
Its necropsy finding is “mesenteric adhesions seen in some animals”.

And the LD50 ([4]; ip, 1000 mg/kg, intraperitoneal, read-out: intraperitoneal LD50)?
Its LD50 is > 1000 mg/kg.

What about the body weight gains ([4]; po, 2000 mg/kg) of the same compound?
Its body weight gains is “slightly reduced”.

What about the LD50 ([4]; oral, read-out: oral LD50) of the same compound?
The LD50 was > 2000 mg/kg.

What about the “competitive (with cGMP) binding to PDE 5” value [5] of the same compound?
Its value is “does competitively (with cGMP) bind to PDE 5”.

What about the side effects [6] of the same compound?
The side effects was “no significant side effects at any dose”.

And the “observable signs of toxicity” value ([7]; 50 mg/kg/day)?
Its value is “no observable signs of toxicity”.

What about the treatment-related effects ([7]; 500 mg/kg/day) of the same compound?
The treatment-related effects was “limited to an increase in absolute and relative liver weights in female rats”.

What about the treatment-related effects ([7]; 2000 mg/kg/day) of the same compound?
Its treatment-related effects is “labored breathing and/or abnormal respiratory sounds, decreased weights gains and food consumption in male rats, and increased liver weights in female rats”.

What about the “hematological, blood chemistry and microscopic pathology changes” value ([7]; any dose level (50, 500, 2000 mg/kg/day)) of the same compound?
The value was “No hematological or blood chemistry changes nor any microscopic a pathology changes”.
